Molecules are shown by their SMILES. Where two headings read alike, the source gives them in different places.

One compound from patent publication US4565805A, “Pharmaceutical preparation for the treatment of peptic ulcer” (priority 1984, dated 1986) can be followed below.

Experiment [1] deals with patients suffering from duodenal peptic ulcer. As to the method: The preparation was tested in clinic on 40 patients suffering from duodenal peptic ulcer. The control groups consisted of 20 patients treated with cymethidin in the daily dose of 800 mg. Only male patients were subjected to the treatment, their age varied from 22 to 56 years. The duration of the disease was different: from newly detected ulcer to 28 years of the disease. The diagnosis of the peptic ulcer was made on the basis of generally accepted clinical tests with an obligatory use of the gastroduodenoscopy. The gastroduodenoscopy was carried out prior to administration of the preparation and 14, 21 and 28 days thereafter (the two latter endoscopy were carried out only in the use of non-scarring ulcers).
The preparation was administered intramuscularly in a dose of 10-15 μg/kg in a 0.9% aqueous solution of sodium chloride twice a day (in the moring at 7 a.m. and in the evening at 19 p.m.). The treatment course was 14-28 days, the course dose of the preparation was 30-60 mg. Apart from the preparation, the patients were given no additional pharmaceuticals, antacids were also excluded.

Experiment [2] relates to experimental duodenal ulcers (cystamine) in rats. As to conditions: preparation 12 μg/kg twice a day, cymethidin 7 mg/kg a day.
Protocol: 170 rats were used. […] The animals of the control group were injected with a physiological solution. The slaughter of the animals was effected in groups of 10 animals within different periods after the beginning of the experiment.

As to `CN/C(=N\CCSCc1nc[nH]c1C)NC#N` [cymethidin], the “patients with pains still noted” value in experiment [1] (by the end of the 2-nd week, cymethidin 800 mg daily) is reported as 35%. In addition, the “patients with healed ulcer” value in experiment [1] (by the end of the 3-rd week, preparation 10-15 μg/kg i.m. twice a day, cymethidin 200 mg 4 times a day) is 65%. Besides, the ulcer index is 1.6 in experiment [2] (24 hrs, control 3.1); 1.6 in experiment [2] (48 hrs, control 3.3); 1.5 in experiment [2] (72 hrs, control 3.2); 0.8 in experiment [2] (7 ds, control 1.8); 0 in experiment [2] (14 ds, control 1.2). Also, the “time of complete healing of ulcers” value in experiment [2] is “by the end of the second week”.
